Read-outs that look alike come from different tables or passages of the source.
Assays:
[1] = biological target: T1, recombinant form of Glutaminase 1 (GAC) (Homo sapiens, UniProt O94925); assay: Recombinant Enzyme Assay - Time Dependence (60 min preincubation); type: biochemical
T1 sequence (O94925 137-598 isoform O94925-3 limits assumed): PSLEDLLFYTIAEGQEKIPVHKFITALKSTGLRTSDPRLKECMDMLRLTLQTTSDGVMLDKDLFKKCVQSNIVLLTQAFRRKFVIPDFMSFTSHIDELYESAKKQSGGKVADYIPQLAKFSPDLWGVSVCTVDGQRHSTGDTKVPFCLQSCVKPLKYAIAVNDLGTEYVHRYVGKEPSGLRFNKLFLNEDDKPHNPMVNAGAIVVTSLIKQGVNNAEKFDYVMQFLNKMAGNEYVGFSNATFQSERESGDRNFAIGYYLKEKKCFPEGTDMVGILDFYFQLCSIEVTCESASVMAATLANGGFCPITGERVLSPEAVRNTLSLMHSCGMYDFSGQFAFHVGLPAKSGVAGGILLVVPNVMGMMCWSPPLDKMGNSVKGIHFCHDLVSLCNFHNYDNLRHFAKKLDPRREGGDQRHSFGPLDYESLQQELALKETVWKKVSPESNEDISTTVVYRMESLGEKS
Description: The enzyme/compound mix was sealed with sealing foil (USA Scientific) and allowed to incubate, with mild agitation, for 60 minutes at 20° C. Enzymatic reaction was started with the addition of 50 μL of substrate solution (50 mM Tris-HCl pH 8.0, 0.2 mM EDTA, 150 mM K2HPO4, 0.1 mg/ml BSA, 1 mM DTT, 20 mM L-glutamine, 2 mM NAD^+, and 10 ppm antifoam) and read in a Molecular Devices M5 plate reader at 20° C. The plate reader was configured to read absorbance (=340 nm) in kinetic mode for 15 minutes. Data was recorded as milli-absorbance units per minute and slopes were compared to a control compound and a DMSO-only control on the same plate. Compounds with slopes less than the DMSO control were considered inhibitors and plate variability was assessed using the control compound.

[2] = test system: P493-6 (myc "on") cells; assay: Cell Proliferation Assay; type: cell-based; conditions: P493-6, 72 h, read-out: Cell prolif P493 72 h IC50, P493-6 cells, 72 h
How it was run: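 P493-6 cells with myc on, 10,000 per well in RPMI/10% FBS, exposed to serially diluted compound (0.5% DMSO final) for 72 h at 37 °C, 5% CO2. Antiproliferative effect read by Cell Titer Glo luminescence or Viacount FACS viability count.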

[3] = read-out: GAC Delta N2 IC50 60 min preinc

SMILES | IC50 [1, 3] | IC50 [2] | IC50 [1]
O=C(Cc1ccccc1)Nc1ccc(CCCCc2nnc(NC(=O)Cc3cccc(CNC(=O)c4ccc(Br)nn4)c3)s2)nn1 [Compound 475] | 2 nM | 3 nM | 
CC1(C)CCN(C(=O)Cc2cccc(CC(=O)Nc3nnc(CCCCc4ccc(NC(=O)Cc5ccccc5)nn4)s3)c2)C1 [Compound 481] | 4 nM | 12 nM | 
CC(C)(O)COc1cccc(CC(=O)Nc2nnc(CCCCc3ccc(NC(=O)Cc4ccccc4)nn3)s2)c1 [Compound 482] | 7 nM | 38 nM | 
CCCCN(C)C(=O)Cc1cccc(CC(=O)Nc2nnc(CCCCc3ccc(NC(=O)Cc4ccccc4)nn3)s2)c1 [Compound 483] | 4 nM | 9 nM | 
CCCN(C)C(=O)Cc1cccc(CC(=O)Nc2nnc(CCCCc3ccc(NC(=O)Cc4ccccc4)nn3)s2)c1 [Compound 484] | 3 nM | 11 nM | 
CC(C)CN(C)C(=O)Cc1cccc(CC(=O)Nc2nnc(CCCCc3ccc(NC(=O)Cc4ccccc4)nn3)s2)c1 [Compound 485] | 4 nM | 12 nM | 
CCN(C)C(=O)Cc1cccc(CC(=O)Nc2nnc(CCCCc3ccc(NC(=O)Cc4ccccc4)nn3)s2)c1 [Compound 486] | 4 nM | 24 nM | 
O=C(Cc1ccccc1)Nc1ccc(CCCCc2nnc(NC(=O)Cc3cccc(CC(=O)N4CCC4)c3)s2)nn1 [Compound 487] | 5 nM | 42 nM | 
CCOc1cccc(CC(=O)Nc2nnc(CCCCc3ccc(NC(=O)Cc4ccccc4)nn3)s2)c1 [Compound 488] | 320 nM | 1900 nM | 
CN1CCN(C(=O)c2cccc(CC(=O)Nc3nnc(CCCCc4ccc(NC(=O)Cc5ccccc5)nn4)s3)c2)CC1 [Compound 490] | 11 nM | 250 nM | 
CC(C)(C)NC(=O)Cc1cccc(CC(=O)Nc2nnc(CCCCc3ccc(NC(=O)Cc4ccccc4)nn3)s2)c1 [Compound 495] | 5 nM | 14 nM | 
CCCNC(=O)Cc1cccc(CC(=O)Nc2nnc(CCCCc3ccc(NC(=O)Cc4ccccc4)nn3)s2)c1 [Compound 497] | 4 nM | 32 nM | 
CC(C)N(C)C(=O)Cc1cccc(CC(=O)Nc2nnc(CCCCc3ccc(NC(=O)Cc4ccccc4)nn3)s2)c1 [Compound 498] | 3 nM | 17 nM | 
O=C(Cc1cccs1)Nc1ccc(CCCCc2nnc(NC(=O)Cc3ccccc3)s2)nn1 [Compound 499] | 10 nM | 190 nM | 
O=C(Cc1cccc(Cn2cccn2)c1)Nc1ccc(CCCCc2nnc(NC(=O)Cc3ccccc3)s2)nn1 [Compound 500] | 4 nM | 29 nM | 
CCOC(=O)Cc1cccc(CC(=O)Nc2ccc(CCCCc3nnc(NC(=O)Cc4ccccc4)s3)nn2)c1 [Compound 501] | 4 nM | 69 nM | 
O=C(Cc1cccc(OCCO)c1)Nc1ccc(CCCCc2nnc(NC(=O)Cc3ccccc3)s2)nn1 [Compound 502] | 7 nM | 75 nM | 
O=C(Cc1ccccc1)Nc1ccc(CCCCc2nnc(NC(=O)Cc3cccs3)s2)nn1 [Compound 503] | 8 nM | 150 nM | 
O=C(Cc1ccccc1)Nc1ccc(CCCCc2nnc(NC(=O)Cc3cccc(OC(CO)CO)c3)s2)nn1 [Compound 505] | 8 nM | 240 nM | 
O=C(Cc1ccccc1)Nc1ccc(CCCCc2nnc(NC(=O)Cc3cccc(OC4COC(c5ccccc5)OC4)c3)s2)nn1 (stereo not shown) [Compound 506] | 10 nM | 170 nM | 
CC(C)(C)OC(=O)NCc1cccc(CC(=O)Nc2nnc(CCCCc3ccc(NC(=O)C(C)(C)C)nn3)s2)c1 [Compound 510] | 22 nM | 94 nM | 
CC(C)(O)Cc1cccc(CC(=O)Nc2nnc(CCCCc3ccc(NC(=O)Cc4ccccc4)nn3)s2)c1 [Compound 513] |  | 22 nM | 7 nM

SMILES | IC50 [1, 3] | IC50 [2] | IC50 [1]
CC(C)(O)CNC(=O)Cc1cccc(CC(=O)Nc2nnc(CCCCc3ccc(NC(=O)Cc4ccccc4)nn3)s2)c1 [Compound 514] | 9 nM | 63 nM | 
CCCCNC(=O)Cc1cccc(CC(=O)Nc2ccc(CCCCc3nnc(NC(=O)Cc4ccccc4)s3)nn2)c1 [Compound 516] |  | 28 nM | 3 nM
CC(C)CNC(=O)Cc1cccc(CC(=O)Nc2ccc(CCCCc3nnc(NC(=O)Cc4ccccc4)s3)nn2)c1 [Compound 517] |  | 46 nM | 3 nM
Cc1nccn1Cc1cccc(CC(=O)Nc2ccc(CCCCc3nnc(NC(=O)Cc4ccccc4)s3)nn2)c1 [Compound 518] |  | 63 nM | 4 nM
O=C(Cc1ccccc1)Nc1ccc(CCCCc2nnc(NC(=O)Cc3cccc(OCCCO)c3)s2)nn1 [Compound 519] | 9 nM | 59 nM | 
O=C(Cc1ccccc1F)Nc1ccc(CCCCc2nnc(NC(=O)Cc3ccccc3)s2)nn1 [Compound 520] | 7 nM | 56 nM | 
O=C(Cc1ccccc1Cl)Nc1ccc(CCCCc2nnc(NC(=O)Cc3ccccc3)s2)nn1 [Compound 521] | 6 nM | 52 nM | 
O=C(Cc1ccccc1)Nc1ccc(CCCCc2nnc(NC(=O)Cc3ccccc3Cl)s2)nn1 [Compound 522] | 23 nM | 60 nM | 
Cc1ccccc1CC(=O)Nc1nnc(CCCCc2ccc(NC(=O)Cc3ccccc3)nn2)s1 [Compound 523] | 21 nM | 55 nM | 
CC(C)(C)OC(=O)NCc1cccc(CC(=O)Nc2nnc(CCCCc3ccc(NC(=O)C(C)(CO)CO)nn3)s2)c1 [Compound 530] | 55 nM | 280 nM | 
COc1ccccc1CC(=O)Nc1nnc(CCCCc2ccc(NC(=O)Cc3ccccc3F)nn2)s1 [Compound 532] | 6 nM | 59 nM | 
O=C(Cc1ccccc1)Nc1ccc(CCCCc2nnc(NC(=O)Cc3ccc(F)c(O)c3)s2)nn1 [Compound 538] | 4 nM | 30 nM | 
O=C(Cc1cccc(OCCCO)c1)Nc1ccc(CCCCc2nnc(NC(=O)Cc3ccccc3)s2)nn1 [Compound 539] | 9 nM | 45 nM | 
O=C(Cc1ccccc1)Nc1ccc(CCCCc2nnc(NC(=O)Cc3ccc(F)c(OCCO)c3)s2)nn1 [Compound 540] | 7 nM | 50 nM | 
CC(C)(C)NC(=O)Cc1cccc(CC(=O)Nc2ccc(CCCCc3nnc(NC(=O)Cc4ccccc4)s3)nn2)c1 [Compound 542] | 4 nM | 43 nM | 
CC(NC(=O)OC(C)(C)C)c1cccc(CC(=O)Nc2ccc(CCCCc3nnc(NC(=O)Cc4ccccc4)s3)nn2)c1 (stereo not shown) [Compound 543] | 4 nM | 5 nM | 
COc1ccc(CC(=O)Nc2nnc(CCCCc3ccc(NC(=O)Cc4ccccc4)nn3)s2)cc1F [Compound 544] | 6 nM | 44 nM | 
O=C(Cc1ccccc1)Nc1ccc(CCCCc2nnc(NC(=O)Cc3cccc(C(F)(F)F)c3)s2)nn1 [Compound 546] | 5 nM | 27 nM | 
O=C(Cc1ccccc1)Nc1ccc(CCCCc2nnc(NC(=O)Cc3ccc(Cl)c(Cl)c3)s2)nn1 [Compound 548] | 10 nM | 85 nM | 
O=C(Cc1ccccc1)Nc1ccc(CCCCc2nnc(NC(=O)Cc3ccc(F)c(Cl)c3)s2)nn1 [Compound 549] | 6 nM | 45 nM | 
COc1ccc(CC(=O)Nc2nnc(CCCCc3ccc(NC(=O)Cc4ccccc4)nn3)s2)cc1C [Compound 550] | 5 nM | 36 nM | 
CN1CCC(Oc2cccc(CC(=O)Nc3nnc(CCCCc4ccc(NC(=O)Cc5ccccc5)nn4)s3)c2)CC1 [Compound 551] | 10 nM | 127 nM | 
